From PMC6780721, “GOBP1 Plays a Key Role in Sex Pheromones and Plant Volatiles Recognition in Yellow Peach Moth, Conogethes punctiferalis (Lepidoptera: Crambidae)” (Insects, 2019)
Read-outs that look alike come from different tables or passages of the source.

Columns and labels:
GOBP1 = GOBP1 (Conogethes punctiferalis, UniProt A0A2H4FXX2); assay: Fluorescence competitive binding assay with 1-NPN, recombinant GOBP1; conditions: for Intensity (%) GOBP1: 1-NPN fluorescence remaining in competitive binding, 2 µM protein, 2 µM 1-NPN, triplicates; for interaction with GOBP1 (in words): fluorescence binding assays, sex pheromones
Chain of GOBP1 (A0A2H4FXX2 entry or part of it): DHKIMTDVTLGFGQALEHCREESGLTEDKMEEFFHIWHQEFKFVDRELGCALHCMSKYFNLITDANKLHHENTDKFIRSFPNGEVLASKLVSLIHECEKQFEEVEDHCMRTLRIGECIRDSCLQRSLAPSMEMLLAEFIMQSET
Text: (§1) Signal peptides were removed from complete ORF sequences of both genes and primers were designed, using antennal cDNA as the templates the GOBP1 and 2 were amplified and cloned using pEASY-T vector (TransGen Biotech, Beijing, China). The sense and antisense primers designed for GOBP1 and GOBP2. GOBP1 sense primers: 5′-[…]-3′ and antisense primer: 5′-[…]-3′ (BamH I and Hind III restriction sites are underlined); GOBP2 sense primer: 5′-[…]-3′ and antisense primer: 5′-[…]-3′ (EcoR I and Hind III restriction sites are underlined). The expected sequences were purified and cloned into the bacterial expression vector pET-30a (+) digested with the same enzymes. Then the plasmid was transformed into BL21 (DE3) competent cells (TransGen, Beijing, China) and the positive clone was inoculated in a liquid LB medium (4 L/protein) induced by 1 mM isopropyl-b-d-thiogalactoside (IPTG, Coollaber Science and Technology, Beijing, China) and placed in shaking incubator at 37 °C for 6 h. The induced bacterial cells were harvested from volume of 4 L liquid LB medium and centrifuged at 4 °C for 10 min (10,000 rpm). The pellets were subjected to ultrasonication and the recombinant GOBPs protein were purified by the Ni^2+-IDA column (His tagged) with a gradient concentration imidazole washing. The precipitate was resolved using 8 M carbamide and proteins were dialyzed in PBS buffer (pH 7.4) to remove the remaining chemical impurities from the protein. Purified protein concentrations of GOBP1 and GOBP2 was determined by the method of Bradford using BSA as standard The western blot method was performed to analyze the correct expression. […] The gel was sandwiched with a polyvinylidene fluoride (PVDF) membrane and sample in the gel was transferred to the PVDF (electrophoresis; 100 V, 200mA, 1 h). The film was washed four times using PBST (1% Tween-20 in 0.5 M Phosphate-buffered saline). 5% skim milk powder in PBST was used as blocking buffer. The PVDF membrane was incubated in primary antibody His (1:1000) and placed on shaker for overnight at 4 °C. The membrane was washed again using PBST and treated with second antibody sheep anti-rabbit antibody (1:5000) at 37 °C for 1 h. A final wash was given to the membrane and developed in ImageQuant LAS 4000 (GE, Pittsburgh, PA, USA) using western optimized HRP (horseradish peroxidase) reagent (Pierce, ELC kit, Thermoscientific, USA).
(§2) The fluorescence intensity was recorded on a FluoroMax-4 spectrophotometer (Horiba Scientific, Piscataway, NJ, USA) at room temperature using a 1 cm light path fluorimeter quartz cuvette. The fluorescent probe N-phenyl-1-naphthylamine (1-NPN) and all the tested chemicals were dissolved in HPLC purity methanol. The final concentration was prepared 2 mM. […] The fluorescence of 1-NPN was excited at 337 nm and emission spectra were recorded between […]. […] The GraphPad Prism 5 (GraphPad Software, Inc. San Diego, CA) was used to estimate the K1-NPN (KD of complex protein /1-NPN) values by nonlinear regression for a unique site of binding. It was assumed that the proteins were 100% active, with a stoichiometry of 1:1 (protein:ligand) at saturation. […] In the equation, [1-NPN] in the free concentration of 1-NPN, and K1-NPN is the dissociation constant of the complex protein/1-NPN.

GOBP2 = GOBP2 (Conogethes punctiferalis, UniProt A0A146JYY2); assay: Fluorescence competitive binding assay with 1-NPN, recombinant GOBP2; conditions: for Intensity (%) GOBP2: 1-NPN fluorescence remaining in competitive binding, 2 µM protein, 2 µM 1-NPN, triplicates
Chain of GOBP2 (A0A146JYY2 entry or part of it): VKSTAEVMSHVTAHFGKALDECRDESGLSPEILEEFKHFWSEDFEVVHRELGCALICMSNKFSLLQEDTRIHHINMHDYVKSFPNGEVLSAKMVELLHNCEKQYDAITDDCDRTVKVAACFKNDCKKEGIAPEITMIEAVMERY
Text: as §1, §2

[1] = dissociation constant calculated from IC50: KD = [IC50]/(1+[1-NPN]/K1-NPN), pH 7.4, mean ± SD, read-out: KD (μM) GOBP1
[2] = ligand concentration halving initial 1-NPN fluorescence, pH 7.4, mean ± SD, read-out: IC50 (μM) GOBP1
[3] = dissociation constant calculated from IC50: KD = [IC50]/(1+[1-NPN]/K1-NPN), pH 7.4, mean ± SD, read-out: KD (μM) GOBP2
[4] = ligand concentration halving initial 1-NPN fluorescence, pH 7.4, mean ± SD, read-out: IC50 (μM) GOBP2

Row | Intensity (%) GOBP1 (GOBP1; pH 7.4, mean ± SD) [%] | Kd (GOBP1; [1]) [µM] | IC50 (GOBP1; [2]) [µM] | Intensity (%) GOBP2 (GOBP2; pH 7.4, mean ± SD) [%] | Kd (GOBP2; [3]) [µM] | IC50 (GOBP2; [4]) [µM] | interaction with GOBP1 (in words) (GOBP1) | Compound | IC50 (GOBP1) [µM] | Kd (GOBP1) [µM] | IC50 (GOBP2) [µM] | Kd (GOBP2) [µM]
1 | 45.50 ± 4.58 | 3.11 ± 0.71 | 7.31 ± 1.43 | 96.44 ± 1.50 | 28.1 ± 0.62 | 68.1 ± 3.7 |  | CCCCCC=O [n-Hexanal] |  |  |  | 
2 | 45.8 ± 0.56 |  |  | 85.52 ± 1.47 |  |  |  | CCCCCCCCCCCCCCO [1-Tetradecanol] | 4.81 ± 0.72 | 2.05 ± 0.43 | 54 ± 2.56 | 22.3 ± 1.89
3 | 95.2 ± 1.12 | 14.3 ± 1.74 | 33.5 ± 1.02 | 96.54 ± 1.39 |  | 98.7 ± 2.3 |  | CCCCCO [1-Amyl alcohol] |  |  |  | 
4 | 47.29 ± 7.52 | 2.09 ± 0.45 | 4.9 ± 0.54 | 84.05 ± 2.25 | 8.86 ± 0.93 | 21.4 ± 4.15 | can interact | CCCCC/C=C/CCCCCCCCC=O [E10-16:Ald, (E)-10-hexadecenal] |  |  |  | 
5 | 71.04 ± 8.80 | 5.69 ± 0.36 | 13.3 ± 2.41 | 96.99 ± 2.63 | 38.3 ± 1.09 | 92.8 ± 3.83 |  | CCCCCCCCC=O [Nonanal] |  |  |  | 
6 | 48.64 ± 4.35 | 0.55 ± 0.08 | 1.29 ± 0.14 | 67.94 ± 1.79 | 8.7 ± 0.74 | 21.1 ± 1.83 |  | CCCCCCCCCCCCCCCC=O [Hexadecanal] |  |  |  | 
7 | 68.98 ± 3.16 | 3.88 ± 0.91 | 9.09 ± 2.42 | 89.93 ± 2.15 | 8.67 ± 1.12 | 21 ± 2.1 |  | C=C1CC/C=C(\C)CC[C@@H]2[C@@H]1CC2(C)C [Caryophllene] |  |  |  | 
8 | 41.45 ± 2.51 | 0.35 ± 0.04 | 0.83 ± 0.09 | 55.64 ± 1.78 | 1.64 ± 0.03 | 3.98 ± 0.36 |  | CC(C)=CCC/C(C)=C/CC/C(C)=C/CO [Farnesol] |  |  |  | 
9 | 78.33 ± 2.89 | 7.17 ± 0.67 | 16.8 ± 2.41 | 98.12 ± 1.92 | 39.9 ± 9.7 | 96.7 ± 2.41 |  | CCCCCCCCCCC=O [Undecanal] |  |  |  | 
10 | 75.78 ± 5.17 | 5.76 ± 0.64 | 13.5 ± 3.22 | 96.80 ± 1.33 | 23.1 ± 4.68 | 56 ± 1.54 |  | CCCCCCC=O [Heptanal] |  |  |  | 
11 |  |  |  |  |  |  |  | c1ccc(Nc2cccc3ccccc23)cc1 [1-NPN, N-phenyl-1-naphthylamine, reference compound] |  | 0.74 ± 0.41 |  | 0.7 ± 0.38
12 | 97.23 ± 0.89 | 25.7 ± 0.43 | 60.4 ± 2.44 | 94.24 ± 1.82 |  | 95.2 ± 1.68 |  | CCCCCCO [n-Hexanol] |  |  |  | 
13 | 20.88 ± 0.48 | 1.2 ± 0.09 | 2.82 ± 0.44 | 58.63 ± 2.72 | 3.58 ± 0.62 | 8.65 ± 1.87 | can interact | CCCCC/C=C\CCCCCCCCC=O [Z10-16:Ald, (Z)-10-hexadecenal] |  |  |  | 

Row | Compound | Intensity (%) GOBP1 (GOBP1; pH 7.4, mean ± SD) [%] | Kd (GOBP1; [1]) [µM] | IC50 (GOBP1; [2]) [µM] | Intensity (%) GOBP2 (GOBP2; pH 7.4, mean ± SD) [%] | Kd (GOBP2; [3]) [µM] | IC50 (GOBP2; [4]) [µM] | interaction with GOBP1 (in words) (GOBP1) | IC50 (GOBP1) [µM] | Kd (GOBP1) [µM] | IC50 (GOBP2) [µM] | Kd (GOBP2) [µM]
14 | CC1=CCC2CC1C2(C)C (stereo not drawn) [α-Pinene] | 64.96 ± 3.26 |  |  | 98.57 ± 1.13 |  |  |  | 11.1 ± 3.47 | 4.73 ± 0.48 | 67.9 ± 4.66 | 28.1 ± 4.06
15 | C=C1CCC2CC1C2(C)C (stereo not drawn) [β-Pinene] | 66.21 ± 2.96 |  |  | 97.15 ± 3.95 |  |  |  | 9.94 ± 2.72 | 4.24 ± 0.69 | 33.7 ± 3.29 | 13.9 ± 1.36
16 | CC/C=C\CCO [Cis-3-hexen-1-ol] | 94.99 ± 1.78 |  |  | 96.93 ± 0.99 |  |  |  | 78.63 ± 0.23 | 33.5 ± 1.21 | 51.3 ± 1.6 | 21.2 ± 1.14
17 | C=C(C)[C@H]1CC=C(C)CC1 [Limonene] | 43.27 ± 2.47 | 1.54 ± 0.39 | 3.62 ± 0.89 | 92.62 ± 1.21 | 14.7 ± 2.78 | 35.5 ± 1.14 |  |  |  |  | 
18 | O=Cc1ccccc1 [Benzaldehyde] | 83.58 ± 6.61 |  |  | 94.76 ± 7.32 |  |  |  | 20.6 ± 1.31 | 8.79 ± 0.59 | 77.1 ± 1.4 | 31.9 ± 3.03
19 | C=CC(C)(O)CCC=C(C)C (centres unmarked) [Linalool] | 74.52 ± 2.42 |  |  | 91.86 ± 0.71 |  |  |  | 15.7 ± 1.61 | 6.7 ± 0.69 | 44.8 ± 1.16 | 18.5 ± 0.48
